The nature of this data set: Rhodamine release from chemically cross-linked poly(dimethyl siloxane) microcapsules (fluorescence photomicrographs, confocal microscopy). The format is physicochemical. An excerpt:
FIGS. 18(a)-(c). A series of photomicrographs (200× magnification) depicting a population of rhodamine B-containing chemically cross-linked elastomeric microcapsules one hour and one year after manufacturing. […] In Particular:
Elastomer-Permeable Therapeutic Agent Microencapsulation. Rhodamine dye was encapsulated within chemically cross-linked poly(dimethyl siloxane) microcapsules utilizing the hydrophilic agent encapsulation methods at low concentrations due to the hydrophilicity of the aqueous solution. However, rhodamine is hydrophobic and permeates vulcanized poly(dimethyl siloxane) in the same fashion as a hydrophobic therapeutic agent. The resultant population of microspheres was sieved and re-suspended in a dilute aqueous poly(vinyl alcohol) solution. Upon resuspension in the rhodamine-free aqueous solution, a series of fluorescence photomicrographs were obtained.
To further investigate the shell-permeability and partition coefficient of the rhodamine within chemically cross-linked elastomeric microcapsules samples of the population of microcapsules that was tested for release were imaged by confocal microscopy.

The text below walks through data of US20080175918A1, “CHEMICALLY CROSS-LINKED ELASTOMERIC MICROCAPSULES” (priority 2005, published 2008).

The structures appear in SMILES notation.

Turning to `CCN(CC)c1ccc2c(-c3ccccc3C(=O)O)c3ccc(=[N+](CC)CC)cc-3oc2c1` [Rhodamine dye, rhodamine B], the “extended release of a model therapeutic (duration)” value (rhodamine in aqueous cores of cross-linked poly(dimethyl siloxane) microcapsules, in dilute aqueous poly(vinyl alcohol), unstirred at room temperature) is listed as “greater than one year”. The burst effect result (upon resuspension in rhodamine-free aqueous solution) is given as “No burst effect was observed”.
